This experiment has as its target T1, PLC-γ1 (Homo sapiens, UniProt P19174).
T1 construct: addition of 4 ng of purified full-length wild-type PLC-γ1; made in house; host or cells: insect cells
T1 sequence (P19174 1-1290): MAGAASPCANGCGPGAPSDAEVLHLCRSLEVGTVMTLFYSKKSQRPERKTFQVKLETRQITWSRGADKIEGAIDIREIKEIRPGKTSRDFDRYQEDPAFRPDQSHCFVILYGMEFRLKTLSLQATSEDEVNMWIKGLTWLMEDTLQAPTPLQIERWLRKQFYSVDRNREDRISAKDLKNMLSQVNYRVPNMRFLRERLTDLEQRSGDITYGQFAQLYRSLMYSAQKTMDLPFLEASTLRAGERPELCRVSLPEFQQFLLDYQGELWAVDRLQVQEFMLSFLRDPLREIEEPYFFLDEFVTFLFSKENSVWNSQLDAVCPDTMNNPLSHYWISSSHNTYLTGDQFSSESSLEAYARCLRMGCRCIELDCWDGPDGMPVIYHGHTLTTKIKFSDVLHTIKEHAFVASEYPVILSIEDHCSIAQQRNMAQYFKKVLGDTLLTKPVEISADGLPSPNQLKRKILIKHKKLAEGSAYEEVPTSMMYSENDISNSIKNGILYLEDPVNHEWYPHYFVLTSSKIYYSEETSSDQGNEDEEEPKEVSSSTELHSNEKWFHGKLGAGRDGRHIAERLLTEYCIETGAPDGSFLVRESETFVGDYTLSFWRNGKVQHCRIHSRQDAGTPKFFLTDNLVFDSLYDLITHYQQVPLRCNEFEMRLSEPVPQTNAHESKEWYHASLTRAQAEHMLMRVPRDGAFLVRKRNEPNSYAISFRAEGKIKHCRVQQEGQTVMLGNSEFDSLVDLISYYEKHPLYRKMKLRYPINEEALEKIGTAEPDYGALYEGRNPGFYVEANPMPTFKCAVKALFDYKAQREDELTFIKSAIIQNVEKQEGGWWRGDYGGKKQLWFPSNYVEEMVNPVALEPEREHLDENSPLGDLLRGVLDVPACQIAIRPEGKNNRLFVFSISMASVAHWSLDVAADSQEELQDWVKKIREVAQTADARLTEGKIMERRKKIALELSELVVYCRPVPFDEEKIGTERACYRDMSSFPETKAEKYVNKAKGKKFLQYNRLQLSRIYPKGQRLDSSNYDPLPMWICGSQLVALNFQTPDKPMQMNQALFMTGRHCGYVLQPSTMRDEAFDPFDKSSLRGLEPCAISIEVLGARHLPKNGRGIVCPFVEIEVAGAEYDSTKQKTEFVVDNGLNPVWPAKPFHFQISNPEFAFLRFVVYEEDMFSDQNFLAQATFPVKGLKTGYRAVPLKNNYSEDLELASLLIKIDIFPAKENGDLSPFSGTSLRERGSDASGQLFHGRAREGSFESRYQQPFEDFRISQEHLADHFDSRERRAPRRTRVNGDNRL
In words: Kinetic studies with PLC-γ1. It counts as biochemical. As to conditions: endogenous substrate PIP2, [3H]PtdIns-(4,5)P2, liquid scintillation counting, 30° C. Here is the method: For comparison, the endogenous substrate, PIP2, was also applied in the enzymatic reaction under similar conditions.
The assays were started by the addition of 4 ng of purified full-length wild-type PLC-γ1. The reaction mixtures were then incubated at 30° C., and fluorescence was measured continuously as described above. For kinetic studies with the endogenous PIP2, a mixture of PtdIns-(4,5)P2 (300 μM, Avanti Polar Lipids) and ˜10,000 cpm of [^3H]PtdIns-(4,5)P2 was dried under a stream of nitrogen and resuspended in 0.5% cholate. The resulting lipid stock was diluted to obtain final assay conditions with either 280, 160, 80, 24, or 8 μM PtdIns(4,5)P2 in the same buffer as described above in a final volume of 60 μL. Assays were initiated by the addition of 17 ng of purified full-length wild-type PLC-γ1. After incubation at 30° C. at time intervals between 0-8 min, reactions were stopped by the addition of 200 μL of 10% (v/v) trichloroacetic acid (TCA) and 100 μL of 10 mg/mL BSA to precipitate uncleaved lipids and protein. Centrifugation of the reaction mixture isolated soluble [^3H]Ins(1,4,5)P3, which was quantified using liquid scintillation counting.

As for “phosphatidylinositol 4,5-bisphosphate [PIP2]”, the Km amounted to 28 ± 2.6 µM and the Vmax came to 2.7 ± 0.07 pmol/min/ng.

These data come from patent US8703437B2, “Fluorogenic sensors for phospholipase C isozymes” (The University of North Carolina at Chapel Hill, priority 2010, dated 2014).
